US8796244B2, “Imidazopyridine derivatives as inhibitors of receptor tyrosine kinases” (Astex Therapeutics Ltd, priority 2008, dated 2014)
Structures can show the parent of a compound that is named as a salt. Where two headings read alike, the source gives them in different places.

Legend:
[1] = system: parental wild-type Ba/F3 cells; experiment: Ba/F3 (WT) cell proliferation assay (Alamar Blue); format: cell-based; conditions: Mus musculus; for inhibition at 10 µM: BaF3, read-out: BaF3 WT prolif, % inhibition
[2] = system: LP-1 cell line (FGF-1/Heparin induced pERK); experiment: Cell-based pERK ELISA, LP-1 cells; conditions: Homo sapiens, LP-1, read-out: LP-1 pERK ELISA (μM)
[3] = BaF3, 72 hours, Alamar Blue, read-out: BaF3 WT prolif
[4] = BaF3, 72 h, read-out: BaF3 WT prolif (μM)

Structure (SMILES)	inhibition at 10 µM [1] [%]	IC50 [2] [µM]	IC50 [1, 3] [µM]	IC50 [1, 4] [µM]
O=C(Nc1cccc(-c2cnc3cc(-c4ccc(F)cc4)ccn23)c1)NC1CC1 [Example 28, 1-Cyclopropyl-3-{3-[7-(4-fluorophenyl)imidazo[1,2-a]pyridin-3-yl]phenyl}urea]	35	0.17	–	–
O=C(NCC(F)(F)F)Nc1cncc(-c2cnc3cc(C#CC4CC4)ccn23)c1 [Example 29, 1-[5-(7-Cyclopropylethynylimidazo[1,2-a]pyridin-3-yl)pyridin-3-yl]-3-(2,2,2-trifluoroethyl)urea]	–	0.12	3.1	–
O=C(NCC(F)(F)F)Nc1cccc(-c2cnc3cc(-c4cnccn4)ccn23)c1 [Example 30, 1-[3-(7-Pyrazin-2-ylimidazo[1,2-a]pyridin-3-yl)phenyl]-3-(2,2,2-trifluoroethyl)urea]	–	0.045	0.13	–
O=C(NCC(F)(F)F)Nc1cncc(-c2cnc3cc(Cl)ccn23)c1 [Example 31, 1-[5-(7-Chloroimidazo[1,2-a]pyridin-3-yl)pyridin-3-yl]-3-(2,2,2-trifluoroethyl)urea]	0	0.82	–	–
O=C(NCC(F)(F)F)Nc1cccc(-c2cnc3cc(-c4ccc(Cl)nn4)ccn23)c1 [Example 33, 1-{3-[7-(6-Chloropyridazin-3-yl)-imidazo[1,2-a]pyridin-3-yl]phenyl}-3-(2,2,2-trifluoroethyl)urea]	–	0.057	0.32	–
O=C(NCC(F)(F)F)Nc1cccc(-c2cnc3cc(-c4ccncn4)ccn23)c1 [Example 34, 1-[3-(7-Pyrimidin-4-ylimidazo[1,2-a]pyridin-3-yl)phenyl]-3-(2,2,2-trifluoroethyl)urea hydrochloride]	0	0.013	–	–
O=C(NCC(F)(F)F)Nc1cncc(-c2cnc3cc(-c4ncccn4)ccn23)c1 [Example 35, 1-[5-(7-Pyrimidin-2-yl-imidazo[1,2-a]pyridine-3-yl)pyridin-3-yl]-3-(2,2,2-trifluoroethyl)urea hydrochloride]	0	0.33	–	–
CN(C)C1CCN(c2ccc(-c3ccn4c(-c5cccc(NC(=O)NCC(F)(F)F)c5)cnc4c3)nn2)CC1 [Example 36, 1-(3-{7-[6-(4-Dimethylaminopiperidin-1-yl)pyridazin-3-yl]imidazo[1,2-a]pyridin-3-yl}-phenyl)-3-(2,2,2-trifluoroethyl)urea hydrochloride.]	0	0.065	–	–
O=C(NCC(F)(F)F)Nc1cccc(-c2cnc3cc(-c4cnn(C5CNC5)c4)ccn23)c1 [Example 37, 1-{3-[7-(1-Azetidin-3-yl-1H-pyrazol-4-yl)-imidazo[1,2-a]pyridin-3-yl]phenyl}-3-(2,2,2-trifluoroethyl)urea]	3.3	0.29	–	–
O=C(NCC(F)(F)F)Nc1cccc(-c2cnc3cc(-c4cnn(C5CCCNC5)c4)ccn23)c1 (stereo not drawn) [Example 40, 1-{3-[7-(1-Piperidin-3-yl-1H-pyrazol-4-yl)-imidazo[1,2-a]pyridin-3-yl]-phenyl}-3-(2,2,2-trifluoro-ethyl)-urea formate]	–	0.046	–	4
CN1CC(n2cc(-c3ccn4c(-c5cccc(NC(=O)NCC(F)(F)F)c5)cnc4c3)cn2)C1 [Example 41, 1-(3-{7-[1-(1-Methyl-azetidin-3-yl)-1H-pyrazol-4-yl]-imidazo[1,2-a]pyridin-3-yl}-phenyl)-3-(2,2,2-trifluoro-ethyl)-urea formate]	–	0.025	–	2.8
O=C(NCC(F)(F)F)Nc1cccc(-c2cnc3cc(-c4cncnc4)ccn23)c1 [Example 42, 1-[3-(7-Pyrimidin-5-yl-imidazo[1,2-a]pyridin-3-yl)-phenyl]-3-(2,2,2-trifluoro-ethyl)-urea hydrochloride]	–	0.27	–	1.1
NC(=O)c1sccc1-c1ccn2c(-c3cccc(NC(=O)NCC(F)(F)F)c3)cnc2c1 [Example 43, 3-(3-{3-[3-(2,2,2-Trifluoroethyl)-ureido]-phenyl}-imidazo[1,2-a]pyridin-7-yl)-thiophene-2-carboxylic acid amide hydrochloride]	0	0.35	–	–
O=C(NCC(F)(F)F)Nc1cccc(-c2cnc3cc(-c4cnn(C5CCNC5)c4)ccn23)c1 (stereo not drawn) [Example 45, 1-{3-[7-(1-Pyrrolidin-3-yl-1H-pyrazol-4-yl)-imidazo[1,2-a]pyridin-3-yl]-phenyl}-3-(2,2,2-trifluoro-ethyl)-urea]	0	0.35	–	–
O=C(NCC(F)(F)F)Nc1cccc(-c2cnc3cc(-c4nccc(C(F)(F)F)n4)ccn23)c1 [Example 46, 1-(2,2,2-Trifluoro-ethyl)-3-{3-[7-(4-trifluoromethyl-pyrimidin-2-yl)-imidazo[1,2-a]pyridin-3-yl]-phenyl}-urea hydrochloride]	27	0.18	–	–
O=C(NCC(F)(F)F)Nc1cccc(-c2cnc3cc(-c4cnn(C5CCOC5)c4)ccn23)c1 (stereo not drawn) [Example 47, 1-(3-{7-[1-(Tetrahydro-furan-3-yl)-1H-pyrazol-4-yl]-imidazo[1,2-a]pyridin-3-yl}-phenyl)-3-(2,2,2-trifluoro-ethyl)-urea hydrochloride]	–	0.0098	–	0.68
COc1cc(OC)nc(-c2ccn3c(-c4cccc(NC(=O)NCC(F)(F)F)c4)cnc3c2)n1 [Example 48, 1-{3-[7-(4,6-Dimethoxy-pyrimidin-2-yl)-imidazo[1,2-a]pyridin-3-yl]-phenyl}-3-(2,2,2-trifluoro-ethyl)-urea hydrochloride]	0	0.13	–	–
O=C(NCC(F)(F)F)Nc1cccc(-c2cnc3cc(-c4ccc(N5CCCCC5)nc4)ccn23)c1 [Example 49, 1-{3-[7-(3,4,5,6-Tetrahydro-2H-[1,2′]bipyridinyl-5′-yl)-imidazo[1,2-a]pyridin-3-yl]-phenyl}-3-(2,2,2-trifluoro-ethyl)-urea hydrochloride]	–	0.017	–	0.29
COc1ccc(-c2ccn3c(-c4cccc(NC(=O)NCC(F)(F)F)c4)cnc3c2)nn1 [Example 51, 1-{3-[7-(6-Methoxy-pyridazin-3-yl)-1,7-imidazo[1,2-a]pyridin-3-yl]-phenyl}-3-(2,2,2-trifluoro-ethyl)-urea]	10	0.015	–	–
O=C(NCC(F)(F)F)Nc1cccc(-c2cnc3cc(-c4ccc(=O)[nH]n4)ccn23)c1 [Example 52, 1-{3-[7-(6-Oxo-1,6-dihydropyridazin-3-yl)-imidazo[1,2-a]pyridin-3-yl]-phenyl}-3-(2,2,2-trifluoro-ethyl)-urea]	51	0.33	–	–
O=C(NCC(F)(F)F)Nc1cccc(-c2cnc3cc(-c4nc5c(s4)CNCC5)ccn23)c1 [Example 53, 1-{3-[7-(4,5,6,7-Tetrahydro-thiazolo[5,4-c]pyridin-2-yl)-imidazo[1,2-a]pyridin-3-yl]-phenyl}-3-(2,2,2-trifluoroethyl)-urea formate]	–	0.023	–	4.1
Cn1cc(C#Cc2ccn3c(-c4cccc(NC(=O)NCC(F)(F)F)c4)cnc3c2)cn1 [Example 56, 1-{3-[7-(1-Methyl-1H-pyrazol-4-ylethynyl)-imidazo[1,2-a]pyridin-3-yl]-phenyl}-3-(2,2,2-trifluoro-ethyl)-urea formate]	–	0.021	–	4.6
Cc1cnc(-c2ccn3c(-c4cccc(NC(=O)NCC(F)(F)F)c4)cnc3c2)nc1 [Example 58, 1-{3-[7-(5-Methyl-pyrimidin-2-yl)-imidazo[1,2-a]pyridin-3-yl]-phenyl}-3-(2,2,2-trifluoro-ethyl)-urea hydrochloride]	–	0.077	–	0.7
Cc1ccnc(-c2ccn3c(-c4cccc(NC(=O)NCC(F)(F)F)c4)cnc3c2)n1 [Example 59, 1-{3-[7-(4-Methyl-pyrimidin-2-yl)-imidazo[1,2-a]pyridin-3-yl]-phenyl}-3-(2,2,2-trifluoro-ethyl)-urea hydrochloride]	–	0.1	–	5.1
O=C(NCC(F)(F)F)Nc1cccc(-c2cnc3cc(-c4ncc(F)cn4)ccn23)c1 [Example 60, 1-{3-[7-(5-Fluoro-pyrimidin-2-yl)-imidazo[1,2-a]pyridin-3-yl]-phenyl}-3-(2,2,2-trifluoro-ethyl)-urea hydrochloride]	0	0.087	–	–
Cc1nccc(-c2ccn3c(-c4cccc(NC(=O)NCC(F)(F)F)c4)cnc3c2)n1 [Example 61, 1-{3-[7-(2-Methyl-pyrimidin-4-yl)-imidazo[1,2-a]pyridin-3-yl]-phenyl}-3-(2,2,2-trifluoro-ethyl)-urea hydrochloride]	15	0.064	–	–
Cn1nc(-c2ccn3c(-c4cccc(NC(=O)NCC(F)(F)F)c4)cnc3c2)ccc1=O [Example 62, 1-{3-[7-(1-Methyl-6-oxo-1,6-dihydro-pyridazin-3-yl)-imidazo[1,2-a]pyridin-3-yl]-phenyl}-3-(2,2,2-trifluoro-ethyl)-urea hydrochloride]	–	0.11	–	1.1
Cc1ncc(C#Cc2ccn3c(-c4cccc(NC(=O)NCC(F)(F)F)c4)cnc3c2)n1C [Example 64, 1-{3-[7-(2,3-Dimethyl-3H-imidazol-4-ylethynyl)-imidazo[1,2-a]pyridin-3-yl]-phenyl}-3-(2,2,2-trifluoro-ethyl)-urea]	–	0.049	2.5	–
CN1CCC(O)(C#Cc2ccn3c(-c4cccc(NC(=O)NCC(F)(F)F)c4)cnc3c2)CC1 [Example 65, 1-{3-[7-(4-Hydroxy-1-methyl-piperidin-4-ylethynyl)-imidazo[1,2-a]pyridin-3-yl]-phenyl}-3-(2,2,2-trifluoro-ethyl)-urea formate]	8.3	1.3	–	–
O=C(NCC(F)(F)F)Nc1cccc(-c2cnc3cc(-c4ccc(NCCO)nn4)ccn23)c1 [Example 67, 1-(3-{7-[6-(2-Hydroxy-ethylamino)-pyridazin-3-yl]-imidazo[1,2-a]pyridin-3-yl}-phenyl)-3-(2,2,2-trifluoro-ethyl)-urea]	–	0.84	2.1	–
